Test results published in ChEMBL document CHEMBL3885861, “Open TG-GATES”.

Species: Rattus norvegicus
Assay: Open TG-GATES - Regimen: Daily Repeat
Type: toxicity, organism-based, Sprague-Dawley
Parameters: regimen Daily Repeat, gender Male, age 6 weeks
Conditions: in vivo, iv, route intravenous injection; for gamma-GTP / A/G / ALP / ALT / AST / BUN / CRE / Ca / Cl / DBIL / GLC / IP / K / LDH / Na / PL / RALB / TBIL / TC / TG / TP: tissue Plasma; for APTT / Bas / Eos / Fbg / Hb / Ht / Lym / MCH / MCHC / MCV / Mono / Neu / PT / Plat / RBC / Ret / WBC: tissue Blood; for KIDNEY_L / KIDNEY_R / KIDNEY_TOTAL: tissue Kidney; for LIVER: tissue Liver
[1] = 4 mg/kg, […], dose level Low, time 14 day
[2] = 4 mg/kg, […], dose level Low, time 28 day
[3] = 12 mg/kg, 72 h, dose level Middle, time 3 day
[4] = 12 mg/kg, […], dose level Middle, time 7 day
[5] = 12 mg/kg, […], dose level Middle, time 14 day
[6] = 12 mg/kg, […], dose level Middle, time 28 day
[7] = 40 mg/kg, 72 h, dose level High, time 3 day
[8] = 40 mg/kg, […], dose level High, time 7 day

Compound: CN(C)c1ncnc2c1ncn2[C@@H]1O[C@H](CO)[C@@H](N)[C@H]1O [PUROMYCIN AMINONUCLEOSIDE]
- gamma-GTP (4 mg/kg, […], dose level Low, time 7 day): 1.6 IU/L
- A/G [1]: 1.1
- ALP [1]: 1081.2 IU/L
- ALT [1]: 35.8 IU/L
- AST [1]: 64.2 IU/L
- BUN [1]: 19.2 mg/dL
- CRE [1]: 0.2 mg/dL
- Ca [1]: 10.9 mg/dL
- Cl [1]: 106.8 meq/L
- DBIL [1]: 0 mg/dL
- GLC [1]: 179.4 mg/dL
- IP [1]: 6.8 mg/dL
- K [1]: 4.2 meq/L
- LDH [1]: 141.2 IU/L
- Na [1]: 142.8 meq/L
- PL [1]: 143.4 mg/dL
- RALB [1]: 2.9 g/dL
- TBIL [1]: 0.002 mg/dL
- TC [1]: 76.8 mg/dL
- TG [1]: 129.2 mg/dL
- TP [1]: 5.5 g/dL
- gamma-GTP [1]: 1.4 IU/L
- A/G [2]: 0.7
- ALP [2]: 666.2 IU/L
- ALT [2]: 34.6 IU/L
- AST [2]: 47 IU/L
- BUN [2]: 17.2 mg/dL
- CRE [2]: 0.2 mg/dL
- Ca [2]: 10.4 mg/dL
- Cl [2]: 104.2 meq/L
- DBIL [2]: 0 mg/dL
- GLC [2]: 181.8 mg/dL
- IP [2]: 6.8 mg/dL
- K [2]: 4.3 meq/L
- LDH [2]: 134 IU/L
- Na [2]: 142.4 meq/L
- PL [2]: 334 mg/dL
- RALB [2]: 2.2 g/dL
- TBIL [2]: 0.006 mg/dL
- TC [2]: 203.8 mg/dL
- TG [2]: 254.2 mg/dL
- TP [2]: 5.4 g/dL
- gamma-GTP [2]: 1.2 IU/L
- TERMINAL_BW [3]: 221.5 g
- APTT [3]: 20.8 s
- Bas [3]: 0%
- Eos [3]: 1%
- Fbg [3]: 305.2 mg/dL
- Hb [3]: 13.2 g/dL
- Ht [3]: 38.5%
- Lym [3]: 86.2%
- MCH [3]: 21 pg
- MCHC [3]: 34.2%
- MCV [3]: 61.4 fL
- Mono [3]: 2%
- Neu [3]: 9.8%
- PT [3]: 16 s
- Plat [3]: 119.7 x10_4/uL
- RBC [3]: 626.8 x10_4/ul
- Ret [3]: 4.3%
- WBC [3]: 80.4 x10_2/uL
- KIDNEY_L [3]: 0.9 g
- KIDNEY_R [3]: 1 g
- KIDNEY_TOTAL [3]: 1.9 g
- LIVER [3]: 9.9 g
- A/G [3]: 1.3
- ALP [3]: 1198.8 IU/L
- ALT [3]: 39.4 IU/L
- AST [3]: 69.4 IU/L
- BUN [3]: 20.8 mg/dL
- CRE [3]: 0.2 mg/dL
- Ca [3]: 11.2 mg/dL
- Cl [3]: 104.6 meq/L
- DBIL [3]: 0 mg/dL
- GLC [3]: 174.4 mg/dL
- IP [3]: 8.2 mg/dL
- K [3]: 4.4 meq/L
- LDH [3]: 145.6 IU/L
- Na [3]: 141.2 meq/L
- PL [3]: 133 mg/dL
- RALB [3]: 3 g/dL
- TBIL [3]: 0.016 mg/dL
- TC [3]: 66.6 mg/dL
- TG [3]: 67.4 mg/dL
- TP [3]: 5.4 g/dL
- gamma-GTP [3]: 1.8 IU/L
- TERMINAL_BW [4]: 243.7 g
- TERMINAL_BW [5]: 292.3 g
- TERMINAL_BW [6]: 237.1 g
- APTT [4]: 21 s
- Bas [4]: 0%
- Eos [4]: 1%
- Fbg [4]: 304.2 mg/dL
- Hb [4]: 13.5 g/dL
- Ht [4]: 38.5%
- Lym [4]: 74.4%
- MCH [4]: 20.6 pg
- MCHC [4]: 35%
- MCV [4]: 58.9 fL
- Mono [4]: 2.6%
- Neu [4]: 21.6%
- PT [4]: 15.8 s
- Plat [4]: 107.5 x10_4/uL
- RBC [4]: 653.8 x10_4/ul
- Ret [4]: 3.3%
- WBC [4]: 93.9 x10_2/uL
- APTT [5]: 18.6 s
- Bas [5]: 0%
- Eos [5]: 0.8%
- Fbg [5]: 561 mg/dL
- Hb [5]: 13.1 g/dL
- Ht [5]: 35.4%
- Lym [5]: 78.2%
- MCH [5]: 20.3 pg
- MCHC [5]: 36.9%
- MCV [5]: 55.1 fL
- Mono [5]: 2.8%
- Neu [5]: 17%
- PT [5]: 13.1 s
- Plat [5]: 181.7 x10_4/uL
- RBC [5]: 641.8 x10_4/ul
- Ret [5]: 1.3%
- WBC [5]: 140.4 x10_2/uL
- APTT [6]: 15.1 s
- Bas [6]: 0%
- Eos [6]: 0.5%
- Fbg [6]: 627 mg/dL
- Hb [6]: 9.5 g/dL
- Ht [6]: 23.8%
- Lym [6]: 60.8%
- MCH [6]: 18.8 pg
- MCHC [6]: 40%
- MCV [6]: 46.9 fL
- Mono [6]: 5.2%
- Neu [6]: 32%
- PT [6]: 15.2 s
- Plat [6]: 137.6 x10_4/uL
- RBC [6]: 498.2 x10_4/ul
- Ret [6]: 0.5%
- WBC [6]: 106.1 x10_2/uL
- KIDNEY_L [4]: 1 g
- KIDNEY_R [4]: 1 g
- KIDNEY_TOTAL [4]: 2 g
- KIDNEY_L [5]: 1.6 g
- KIDNEY_R [5]: 1.6 g
- KIDNEY_TOTAL [5]: 3.2 g
- KIDNEY_L [6]: 2.3 g
- KIDNEY_R [6]: 2.3 g
- KIDNEY_TOTAL [6]: 4.6 g
- LIVER [4]: 10.4 g
- LIVER [5]: 12.1 g
- LIVER [6]: 12.8 g
- A/G [4]: 1.1
- ALP [4]: 1114.8 IU/L
- ALT [4]: 36.8 IU/L
- AST [4]: 66.4 IU/L
- BUN [4]: 21.8 mg/dL
- CRE [4]: 0.2 mg/dL
- Ca [4]: 10.8 mg/dL
- Cl [4]: 107.2 meq/L
- DBIL [4]: 0.002 mg/dL
- GLC [4]: 174.8 mg/dL
- IP [4]: 7.5 mg/dL
- K [4]: 4.2 meq/L
- LDH [4]: 139.2 IU/L
- Na [4]: 140.4 meq/L
- PL [4]: 139.2 mg/dL
- RALB [4]: 2.8 g/dL
- TBIL [4]: 0.014 mg/dL
- TC [4]: 76.2 mg/dL
- TG [4]: 86.8 mg/dL
- TP [4]: 5.3 g/dL
- gamma-GTP [4]: 1.4 IU/L
- A/G [5]: 0.5
- ALP [5]: 267.4 IU/L
- ALT [5]: 31.4 IU/L
- AST [5]: 35.8 IU/L
- BUN [5]: 77.4 mg/dL
- CRE [5]: 0.5 mg/dL
- Ca [5]: 9.3 mg/dL
- Cl [5]: 107.6 meq/L
- DBIL [5]: 0 mg/dL
- GLC [5]: 180.8 mg/dL
- IP [5]: 7.8 mg/dL
- K [5]: 4 meq/L
- LDH [5]: 214.2 IU/L
- Na [5]: 143.4 meq/L
- PL [5]: 533 mg/dL
- RALB [5]: 1.3 g/dL
- TBIL [5]: 0 mg/dL
- TC [5]: 344.6 mg/dL
- TG [5]: 454 mg/dL
- TP [5]: 4.1 g/dL
- gamma-GTP [5]: 1.8 IU/L
- A/G [6]: 0.4
- ALP [6]: 137.2 IU/L
- ALT [6]: 61 IU/L
- AST [6]: 53.2 IU/L
- BUN [6]: 86.5 mg/dL
- CRE [6]: 1.1 mg/dL
- Ca [6]: 8.4 mg/dL
- Cl [6]: 104 meq/L
- DBIL [6]: 0 mg/dL
- GLC [6]: 158.8 mg/dL
- IP [6]: 8.8 mg/dL
- K [6]: 3.9 meq/L
- LDH [6]: 391.8 IU/L
- Na [6]: 142.2 meq/L
- PL [6]: 854.5 mg/dL
- RALB [6]: 1.3 g/dL
- TBIL [6]: 0.0025 mg/dL
- TC [6]: 589 mg/dL
- TG [6]: 351 mg/dL
- TP [6]: 4.5 g/dL
- gamma-GTP [6]: 2.8 IU/L
- TERMINAL_BW [7]: 218.3 g
- APTT [7]: 19.2 s
- Bas [7]: 0%
- Eos [7]: 0.6%
- Fbg [7]: 356 mg/dL
- Hb [7]: 13.3 g/dL
- Ht [7]: 38.2%
- Lym [7]: 88.4%
- MCH [7]: 20.4 pg
- MCHC [7]: 34.7%
- MCV [7]: 58.9 fL
- Mono [7]: 2.4%
- Neu [7]: 7.4%
- PT [7]: 15.9 s
- Plat [7]: 136.4 x10_4/uL
- RBC [7]: 649 x10_4/ul
- Ret [7]: 2%
- WBC [7]: 82.2 x10_2/uL
- KIDNEY_L [7]: 0.9 g
- KIDNEY_R [7]: 1 g
- KIDNEY_TOTAL [7]: 1.9 g
- LIVER [7]: 9.6 g
- A/G [7]: 1.2
- ALP [7]: 892.8 IU/L
- ALT [7]: 40.6 IU/L
- AST [7]: 62 IU/L
- BUN [7]: 24.2 mg/dL
- CRE [7]: 0.2 mg/dL
- Ca [7]: 12.3 mg/dL
- Cl [7]: 102.8 meq/L
- DBIL [7]: 0 mg/dL
- GLC [7]: 179.6 mg/dL
- IP [7]: 10.8 mg/dL
- K [7]: 4.4 meq/L
- LDH [7]: 154.8 IU/L
- Na [7]: 141.2 meq/L
- PL [7]: 153 mg/dL
- RALB [7]: 3 g/dL
- TBIL [7]: 0.022 mg/dL
- TC [7]: 82 mg/dL
- TG [7]: 64.4 mg/dL
- TP [7]: 5.5 g/dL
- gamma-GTP [7]: 1.8 IU/L
- TERMINAL_BW [8]: 221.5 g
- APTT [8]: 18 s
- Bas [8]: 0%
- Eos [8]: 0.6%
- Fbg [8]: 621.8 mg/dL
- Hb [8]: 13.7 g/dL
- Ht [8]: 37.4%
- Lym [8]: 84.8%
- MCH [8]: 20.5 pg
- MCHC [8]: 36.6%
- MCV [8]: 56.2 fL
- Mono [8]: 2.6%
- Neu [8]: 10.8%
- PT [8]: 13 s
- Plat [8]: 106.2 x10_4/uL
- RBC [8]: 665.2 x10_4/ul
- Ret [8]: 0.8%
- WBC [8]: 108.1 x10_2/uL
- KIDNEY_L [8]: 1.2 g
- KIDNEY_R [8]: 1.2 g
- KIDNEY_TOTAL [8]: 2.4 g
- LIVER [8]: 8.2 g
- A/G [8]: 0.4
- ALP [8]: 264.4 IU/L
- ALT [8]: 65.8 IU/L
- AST [8]: 78.6 IU/L
- BUN [8]: 166.8 mg/dL
- CRE [8]: 1 mg/dL
- Ca [8]: 9.1 mg/dL
- Cl [8]: 101 meq/L
- DBIL [8]: 0 mg/dL
- GLC [8]: 164.4 mg/dL
- IP [8]: 12.6 mg/dL
- K [8]: 5 meq/L
- LDH [8]: 484 IU/L
- Na [8]: 135.4 meq/L
- PL [8]: 387.2 mg/dL
- RALB [8]: 1.1 g/dL
- TBIL [8]: 0.01 mg/dL
- TC [8]: 266.6 mg/dL
- TG [8]: 125.6 mg/dL
- TP [8]: 3.5 g/dL
- gamma-GTP [8]: 2.4 IU/L
